In brackets after ≈: the same amount, converted by molar mass. Read-outs that look alike come from different tables or passages of the source.
Key:
[1] = Serum half-life and urine concentration in mice (disk agar diffusion bioassay); settings: mouse, in vivo; strain CD-1 mice; antibiotic activity in blood serum by disk agar diffusion, Bacillus subtilis ATCC 6633 indicator
Experimental: The antibiotic compounds of the present invention also have a very long serum half-life. The compounds of the present invention have a serum half-life of 12 hours compared to 0.3 hour for vancomycin. […] Antibiotic activity in blood serum was evaluated by disk agar diffusion with penicillin assay agar that was seeded with a Bacillus subtilis ATCC 6633 spore suspension as the indicator. Serum samples were evaluated against standards diluted in mouse serum and urines were evaluated against standards prepared in 1% pH 6 phosphate buffer. Assays were incubated at 28°C. […] The long half-life of the compounds of the present invention indicate usefulness prophylactically as an aid in prevention of infection.

[2] = tested on: Staph. aureus HH127; experiment: Mouse protection assay; format: in vivo; settings: Staphylococcus aureus
[3] = tested on: Strep. faecalis 34358; experiment: Mouse protection assay; format: in vivo
[4] = tested on: Staph. aureus 209P vancomycin resistant mutant; experiment: MIC, standard microtiter assay; format: cell-based; settings: Staphylococcus aureus, read-out: MIC in μg/ml
Experimental: (§1) The in vitro minimal inhibitory concentration (MIC) and the in vitro minimal bactericidal concentration (MBC) of the AAJ-271 aglycones, pseudo-aglycone and vancomycin were determined for a number of microorganisms using the standard microtiter assay procedures.

[5] = tested on: Staph. epidermidis 2261; experiment: MIC, standard microtiter assay; format: cell-based; settings: Staphylococcus epidermidis, 2261, read-out: MIC in μg/ml
Experimental: as §1

[6] = tested on: Staph. saprophyticus 2657; experiment: MIC, standard microtiter assay; format: cell-based; settings: Staphylococcus saprophyticus, 2657, read-out: MIC in μg/ml, Staph. saprophyticus 2657
Experimental: (§2) The in vitro minimal inhibitory concentration (MIC) of the AAJ-271 complex and its factors, and vancomycin were determined for a number of microorganisms using the standard microtite'r assay procedures. The results are shown in the following tables, each of which represents a different production run of the complex.
as §1

[7] = tested on: Staph. aureus HH127; experiment: MIC, standard microtiter assay; format: cell-based; settings: Staphylococcus aureus, HH127, read-out: MIC in μg/ml, Staph. aureus HH127
Experimental: as §2, §1

[8] = tested on: Strep. faecalis 34358; experiment: MIC, standard microtiter assay; format: cell-based; settings: Enterococcus faecalis, 34358, read-out: MIC in μg/ml, Strep. faecalis 34358
Experimental: as §2, §1

[9] = tested on: Staph. aureus 209P; experiment: MIC, standard microtiter assay; format: cell-based; settings: Staphylococcus aureus, 209P, read-out: MIC in μg/ml, Staph. aureus 209P
Experimental: as §2, §1

[10] = tested on: Staph. aureus 675; experiment: MIC, standard microtiter assay; format: cell-based; settings: Staphylococcus aureus, 675, read-out: MIC in μg/ml, Staph. aureus 675
Experimental: as §2, §1

[11] = tested on: Staph. haemolyticus 651; experiment: MIC, standard microtiter assay; format: cell-based
Experimental: as §2, §1

[12] = tested on: Strep. faecalis 657; experiment: MIC, standard microtiter assay; format: cell-based; settings: Enterococcus faecalis, 657, read-out: MIC in μg/ml, Strep. faecalis 657
Experimental: as §2, §1

[13] = tested on: Strep. pyogenes (Group A); experiment: MIC, standard microtiter assay; format: cell-based
Experimental: as §2, §1

[14] = tested on: Staph. aureus 2630; experiment: Mouse protection assay; format: in vivo; settings: Staphylococcus aureus, 2630, 1 h
[15] = tested on: Staph. epidermidis 2479; experiment: MBC, standard assay procedures; format: cell-based
Experimental: (§3) The in vitro minimal bactericidal concentration (MBC) of the AAJ-271 C, C2 and C3 factors and vancomycin were determined for a number of microorganisms using standard assay procedures.
as §1

[16] = tested on: Staph. aureus 2620; experiment: MBC, standard assay procedures; format: cell-based
Experimental: as §3, §1

[17] = tested on: Staph. aureus HH127; experiment: MBC, standard assay procedures; format: cell-based; settings: Staphylococcus aureus
Experimental: as §3, §1

[18] = tested on: Strep. faecalis 34358; experiment: MBC, standard assay procedures; format: cell-based
Experimental: as §3, §1

[19] = tested on: Staph. aureus 675; experiment: MBC, standard assay procedures; format: cell-based
Experimental: as §3, §1

[20] = tested on: Staph. haemolyticus 651; experiment: MBC, standard assay procedures; format: cell-based
Experimental: as §3, §1

[21] = tested on: Staph. epidermidis 2265; experiment: MBC, standard assay procedures; format: cell-based
Experimental: as §3, §1

[22] = tested on: Strep. faecalis 657; experiment: MBC, standard assay procedures; format: cell-based
Experimental: as §3, §1

`CN[C@H](CC(C)C)C(=O)N[C@H]1C(=O)N[C@@H](CC(N)=O)C(=O)N[C@H]2C(=O)N[C@H]3C(=O)N[C@H](C(=O)N[C@H](C(=O)O)c4cc(O)cc(O)c4-c4cc3ccc4O)[C@H](O)c3ccc(c(Cl)c3)Oc3cc2cc(c3O[C@@H]2O[C@H](CO)[C@@H](O)[C@H](O)[C@H]2O[C@H]2C[C@](C)(N)[C@H](O)[C@H](C)O2)Oc2ccc(cc2Cl)[C@H]1O` [Vancomycin, vancomycin] gave a half-life [1] of 18 min, an ED50 ([2]; HH127, 1 h) of 0.26 mg/kg and an ED50 ([2]; HH127, iv, 1 h) of 2.8 mg/kg. The ED50 ([3]; Enterococcus faecalis, 34358, 1 h) was 1.25 mg/kg, the ED50 ([3]; Enterococcus faecalis, 34358, iv, 1 h) was 1.3 mg/kg and the MIC [4] was over 100 µg/mL. The MIC [5] was 6.3 µg/mL (≈ 4.35 µM), the MIC ([6]; Table I) was 1.6 µg/mL (≈ 1.1 µM) and the MIC ([6]; Table VIII) was 3.1 µg/mL (≈ 2.14 µM). It also gave an MIC ([7]; Table I) of 1.6 µg/mL (≈ 1.1 µM), an MIC ([7]; Table II) of 3.1 µg/mL (≈ 2.14 µM) and an MIC ([7]; Table IX) of 3.1 µg/mL (≈ 2.14 µM). For the same molecule, the MIC ([7]; Table VIII) was 1.6 µg/mL (≈ 1.1 µM), the MIC ([8]; Table I) was 1.6 µg/mL (≈ 1.1 µM) and the MIC ([8]; Table II) was 6.3 µg/mL (≈ 4.35 µM). The MIC ([8]; Table IX) was 6.3 µg/mL (≈ 4.35 µM), the MIC ([8]; Table VIII) was 3.1 µg/mL (≈ 2.14 µM) and the MIC ([9]; Table I) was 1.6 µg/mL (≈ 1.1 µM). It also gave an MIC ([9]; Table VIII) of 0.8 µg/mL (≈ 0.552 µM), an MIC ([10]; Table I) of 1.6 µg/mL (≈ 1.1 µM) and an MIC ([10]; Table II) of 3.1 µg/mL (≈ 2.14 µM). For the same molecule, the MIC ([10]; Table IX) was 3.1 µg/mL (≈ 2.14 µM), the MIC ([10]; Table VIII) was 3.1 µg/mL (≈ 2.14 µM) and the “MIC” value ([11]; Staph. haemolyticus 651, Table II) was 3.1 µg/mL (≈ 2.14 µM). The “MIC” value ([11]; Staph. haemolyticus 651, Table IX) was 3.1 µg/mL (≈ 2.14 µM), the “MIC” value ([11]; Staph. haemolyticus 651, Table VIII) was 3.1 µg/mL (≈ 2.14 µM) and the MIC ([11]; Staphylococcus haemolyticus, 651, read-out: MIC in μg/ml) was 3.1 µg/mL (≈ 2.14 µM). The MIC ([12]; Table I) was 1.6 µg/mL (≈ 1.1 µM), the MIC ([12]; Table II) was 3.1 µg/mL (≈ 2.14 µM) and the MIC ([12]; Table IX) was 3.1 µg/mL (≈ 2.14 µM). For the same molecule, the MIC ([12]; Table VIII) was 3.1 µg/mL (≈ 2.14 µM), the “MIC” value ([13]; Strep. pyogenes (Group A), Table VIII) was 0.8 µg/mL (≈ 0.552 µM) and the MIC ([13]; Streptococcus pyogenes, read-out: MIC in μg/ml) was 0.8 µg/mL (≈ 0.552 µM). For the same molecule, the ED50 [14] was 0.78 mg/kg, the “MBC” value ([15]; Staph. epidermidis 2479, Table IX) was 6.3 µg/mL (≈ 4.35 µM) and the MBC ([15]; Staphylococcus epidermidis, 2479, read-out: MBC in μg/ml) was 6.3 µg/mL (≈ 4.35 µM). For the same molecule, the MBC ([15]; Staphylococcus epidermidis, IIIB, read-out: MBC in μg/ml) was 6.3 µg/mL (≈ 4.35 µM), the MBC ([16]; Staphylococcus aureus, 2620, read-out: MBC in μg/ml, Staph. aureus 2620, Table IX) was 3.1 µg/mL (≈ 2.14 µM) and the MBC ([16]; Staphylococcus aureus, 2620, read-out: MBC in μg/ml, Staph. aureus 2620, Table VIII) was 1.6 µg/mL (≈ 1.1 µM). The MBC ([16]; Staphylococcus aureus, IIIB, read-out: MBC in μg/ml, Staph. aureus 2620, Table IIIB) was 3.1 µg/mL (≈ 2.14 µM), the MBC ([17]; HH127, read-out: MBC in μg/ml, Staph. aureus HH127, Table IX) was 3.1 µg/mL (≈ 2.14 µM) and the MBC ([17]; HH127, read-out: MBC in μg/ml, Staph. aureus HH127, Table VIII) was 1.6 µg/mL (≈ 1.1 µM). The MBC ([17]; IIIB, read-out: MBC in μg/ml, Staph. aureus HH127, Table IIIB) was 3.1 µg/mL (≈ 2.14 µM), the MBC ([18]; Enterococcus faecalis, 34358, read-out: MBC in μg/ml, Strep. faecalis 34358, Table IX) was 12.5 µg/mL (≈ 8.63 µM) and the MBC ([18]; Enterococcus faecalis, 34358, read-out: MBC in μg/ml, Strep. faecalis 34358, Table VIII) was 50 µg/mL (≈ 34.5 µM). It also gave an MBC ([18]; Enterococcus faecalis, read-out: MBC in μg/ml, Strep. faecalis 34358, Table) of 12.5 µg/mL (≈ 8.63 µM), an MBC ([19]; Staphylococcus aureus, 675, read-out: MBC in μg/ml, Staph. aureus 675, Table IX) of 6.3 µg/mL (≈ 4.35 µM) and an MBC ([19]; Staphylococcus aureus, 675, read-out: MBC in μg/ml, Staph. aureus 675, Table VIII) of 3.1 µg/mL (≈ 2.14 µM). It also gave an MBC ([19]; Staphylococcus aureus, IIIB, read-out: MBC in μg/ml, Staph. aureus 675, Table IIIB) of 6.3 µg/mL (≈ 4.35 µM), an MBC ([20]; Staphylococcus haemolyticus, 651, read-out: MBC in μg/ml, Staph. haemolyticus 651, Table IX) of 12.5 µg/mL (≈ 8.63 µM) and an MBC ([20]; Staphylococcus haemolyticus, 651, read-out: MBC in μg/ml, Staph. haemolyticus 651, Table VIII) of 3.1 µg/mL (≈ 2.14 µM). The MBC ([20]; Staphylococcus haemolyticus, IIIB, read-out: MBC in μg/ml, Staph. haemolyticus 651, Table IIIB) was 12.5 µg/mL (≈ 8.63 µM), the MBC ([21]; Staphylococcus epidermidis, 2265, read-out: MBC in μg/ml, Staph. epidermidis 2265, Table IX) was 6.3 µg/mL (≈ 4.35 µM) and the MBC ([21]; Staphylococcus epidermidis, 2265, read-out: MBC in μg/ml, Staph. epidermidis 2265, Table VIII) was 3.1 µg/mL (≈ 2.14 µM). It also gave an MBC ([21]; Staphylococcus epidermidis, IIIB, read-out: MBC in μg/ml, Staph. epidermidis 2265, Table IIIB) of 6.3 µg/mL (≈ 4.35 µM), an MBC ([22]; Enterococcus faecalis, 657, read-out: MBC in μg/ml, Strep. faecalis 657, Table IX) of 6.3 µg/mL (≈ 4.35 µM) and an MBC ([22]; Enterococcus faecalis, 657, read-out: MBC in μg/ml, Strep. faecalis 657, Table VIII) of 3.1 µg/mL (≈ 2.14 µM). It also gave an MBC ([22]; Enterococcus faecalis, IIIB, read-out: MBC in μg/ml, Strep. faecalis 657, Table IIIB) of 6.3 µg/mL (≈ 4.35 µM).
